Source: patent US10722520B2, “Heterocyclic compounds and their use in preventing or treating bacterial infections” (MUTABILIS, priority 2016, dated 2020)
Where a name gives a salt, the structure may show the parent alone. Read-outs that look alike come from different tables or passages of the source.

Experiments:
[1] = system: E. cloacae P99; experiment: MIC of compound alone, broth microdilution; assay type: cell-based; details: Enterobacter cloacae; strain P99; compound alone; read-out: MIC compounds of the invention alone
Summary of the method: (§1)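 Visual end point: lowest concentration that blocked growth. Conditions: cation-adjusted Mueller-Hinton broth, 5×10^5 cfu/mL final inoculum of log-phase bacteria, 16-20 h, 35° C, ambient atmosphere.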

[2] = system: E. coli 190317; experiment: MIC of compound alone, broth microdilution; assay type: cell-based; details: Escherichia coli; strain 190317; compound alone; read-out: MIC compounds of the invention alone
Summary of the method: as §1

[3] = system: K. pneumoniae 6299; experiment: MIC of compound alone, broth microdilution; assay type: cell-based; details: Klebsiella pneumoniae; strain 6299; compound alone; read-out: MIC compounds of the invention alone
Summary of the method: as §1

[4] = system: K. pneumoniae BAA-1898; experiment: MIC of compound alone, broth microdilution; assay type: cell-based; details: Klebsiella pneumoniae, BAA1898; strain BAA-1898; compound alone; read-out: MIC compounds of the invention alone
Summary of the method: as §1

[5] = system: P. aeruginosa CIP107051; experiment: MIC of compound alone, broth microdilution; assay type: cell-based; details: Pseudomonas aeruginosa; strain CIP107051; compound alone; read-out: MIC compounds of the invention alone
Summary of the method: as §1

[6] = target: CMY-37 (Citrobacter freundii, UniProt P05193); details: read-out: IC50 β-lactamase CMY-37
[7] = target: AmpC (P99) (Enterobacter cloacae, UniProt P05364); experiment: biochemical
[8] = target: AmpC (PAE) (Pseudomonas aeruginosa, UniProt P24735); experiment: biochemical
[9] = target: OXA-15 (Pseudomonas aeruginosa, UniProt Q51574); experiment: biochemical
[10] = target: TEM-1 (Escherichia coli, UniProt P62593)
[11] = target: SHV-1 (Klebsiella pneumoniae, UniProt P0AD64)
[12] = target: CTX-M-15 (Escherichia coli, UniProt Q9EXV5)
[13] = target: KPC-2 (Klebsiella pneumoniae, UniProt Q9F663)
[14] = target: OXA-1 (Escherichia coli, UniProt P13661)
[15] = target: OXA-11 (Pseudomonas aeruginosa, UniProt Q06778)
[16] = target: OXA-48 (Klebsiella pneumoniae, UniProt Q6XEC0)
[17] = class (C), nitrocefin 200 μM, 30-min pre-incubation, enzyme 0.2 nM

O=C(Nc1ccn(C2=CC3CN(C2)C(=O)N3OS(=O)(=O)O)n1)c1cncs1 (stereo not shown) [Example 77, [3-[3-[thiazole-5-carbonyl]amino]pyrazol-1-yl]-7-oxo-1,6-diazabicyclo[3.2.1]oct-3-en-6-yl]hydrogen sulfate]
MIC [1]: > 32 µg/mL
MIC [2]: > 32 µg/mL
MIC [3]: > 32 µg/mL
MIC [4]: > 32 µg/mL
MIC [5]: > 32 µg/mL
IC50 [6, 17]: 7.1 nM
IC50 [7]: 11 nM
IC50 [8]: 58 nM
IC50 [9]: 46 nM
IC50 [10]: 1.1 nM
IC50 [11]: 5.2 nM
IC50 [12]: 1.5 nM
IC50 [13]: 11 nM
IC50 [14]: 140 nM
IC50 [15]: 16 nM
IC50 [16]: 7.8 nM

O=C(Nc1ncns1)c1ccn(C2=CC3CN(C2)C(=O)N3OS(=O)(=O)O)n1 (stereo not shown) [Example 79, [7-oxo-3-[3-(1,2,4-thiadiazol-5-ylcarbamoyl)pyrazol-1-yl]-1,6-diazabicyclo[3.2.1]oct-3-en-6-yl]hydrogen sulfate]
MIC [1]: > 32 µg/mL
MIC [2]: > 32 µg/mL
MIC [3]: > 32 µg/mL
MIC [4]: > 32 µg/mL
MIC [5]: > 32 µg/mL
IC50 [6, 17]: 8.6 nM
IC50 [7]: 14 nM
IC50 [8]: 95 nM
IC50 [9]: 46 nM
IC50 [10]: 0.36 nM
IC50 [11]: 0.98 nM
IC50 [12]: 0.46 nM
IC50 [13]: 4.4 nM
IC50 [14]: 65 nM
IC50 [15]: 19 nM
IC50 [16]: 4.7 nM

O=C(Nc1ccccn1)c1ccn(C2=CC3CN(C2)C(=O)N3OS(=O)(=O)[O-])n1.[Na+] (stereo not shown) [Example 80, sodium [7-oxo-3-[3-(2-pyridylcarbamoyl)pyrazol-1-yl]-1,6-diazabicyclo[3.2.1]oct-3-en-6-yl]sulfate]
MIC [1]: > 32 µg/mL
MIC [2]: > 32 µg/mL
MIC [3]: > 32 µg/mL
MIC [4]: > 32 µg/mL
MIC [5]: > 32 µg/mL
IC50 [6]: 12 nM
IC50 [7]: 7.9 nM
IC50 [8]: 150 nM
IC50 [9]: 11 nM
IC50 [10]: 0.27 nM
IC50 [11]: 1.4 nM
IC50 [12]: 0.29 nM
IC50 [13]: 2.6 nM
IC50 [14]: 30 nM
IC50 [15]: 5.5 nM
IC50 [16]: 0.86 nM

O=C(N[C@H]1CCNC1)c1ccn(C2=CC3CN(C2)C(=O)N3OS(=O)(=O)O)n1 (stereo partly drawn) [Example 82, [7-oxo-3-[3-[[(3S)-pyrrolidin-3-yl]carbamoyl]pyrazol-1-yl]-1,6-diazabicyclo[3.2.1]oct-3-en-6-yl]hydrogen sulfate]
MIC [1]: 4 µg/mL
MIC [2]: 2 µg/mL
MIC [3]: 32 µg/mL
MIC [4]: 32 µg/mL
MIC [5]: > 32 µg/mL
IC50 [6, 17]: 61 nM
IC50 [7]: 32 nM
IC50 [8]: 270 nM
IC50 [9]: 47 nM
IC50 [10]: 0.58 nM
IC50 [11]: 4.9 nM
IC50 [12]: 0.89 nM
IC50 [13]: 10 nM
IC50 [14]: 110 nM
IC50 [15]: 22 nM
IC50 [16]: 3.2 nM
